The structures appear in SMILES notation.

The experiment deals with T1, human IL-17A (Homo sapiens, UniProt Q16552).
T1 construct: purchased R&D Systems 7955-IL/CF
T1 sequence (Q16552 24-155): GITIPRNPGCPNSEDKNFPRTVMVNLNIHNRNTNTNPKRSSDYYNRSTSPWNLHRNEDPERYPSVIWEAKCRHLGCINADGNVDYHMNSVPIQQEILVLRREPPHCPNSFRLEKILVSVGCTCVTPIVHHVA
Description: IL-17A AlphaLISA competition assay (block of IL-17A binding to its receptor IL-17RA). The following applies: mean IC50 (n≥2), block of IL-17A binding to IL-17RA. The gist of the method: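 Human recombinant IL-17A (7.5 nM stock) pre-incubated 30 min at RT with compound, then IL-17RA/Fc (5 nM stock) added for 90 min; AlphaLISA read with anti-Fc acceptor beads, biotinylated anti-IL-17A antibody (5 nM) and streptavidin donor beads (3 h, dark). IC50 from 4-parameter logistic fit, normalised to DMSO and 4 μM reference inhibitor; n≥2.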
For orientation: Bead proximity is the source of the signal in Alpha formats.
Broadly, the IC50 is the concentration that gives 50% inhibition. `C[C@@H]1CN(Cc2ccnc(NC(=O)[C@@H](NC(=O)c3ccnn3C3CC3)C(C3CC3)C3CC3)c2)C(=O)N1` [Example 34, 1-cyclopropyl-N—((S)-1,1-dicyclopropyl-3-((4-(((R)-4-methyl-2-oxoimidazolidin-1-yl)methyl)pyridin-2-yl)amino)-3-oxopropan-2-yl)-1H-pyrazole-5-carboxamide] yielded an IC50 of 1470 nM.
With `CC(C)n1nccc1C(=O)NC(C(=O)Nc1cc(Cc2cccc(=O)n2C)ccn1)C1CCC(F)(F)CC1` (stereo not drawn) [Example 35, N-(1-(4,4-difluorocyclohexyl)-2-((4-((1-methyl-6-oxo-1,6-dihydropyridin-2-yl)methyl)pyridin-2-yl)amino)-2-oxoethyl)-1-isopropyl-1H-pyrazole-5-carboxamide], the IC50 turned out to be 23500 nM. This IC50 is about 16-fold higher than that of the compound before.
In turn, `CCn1nccc1C(=O)NC(C(=O)Nc1cc(Cc2cccc(=O)n2C)ccn1)C1CCC(F)(F)CC1` (stereo not drawn) [Example 36, N-(1-(4,4-difluorocyclohexyl)-2-((4-((1-methyl-6-oxo-1,6-dihydro-pyridin-2-yl)methyl)pyridin-2-yl)amino)-2-oxoethyl)-1-ethyl-1H-pyrazole-5-carboxamide] registered an IC50 of 12000 nM.
In turn, `Cn1nccc1C(=O)NC(C(=O)Nc1cc(Cc2cccc(=O)n2C)ccn1)C1CCC(F)(F)CC1` (stereo not drawn) [Example 37, N-(1-(4,4-difluorocyclohexyl)-2-((4-((1-methyl-6-oxo-1,6-dihydropyridin-2-yl)methyl)pyridin-2-yl)amino)-2-oxoethyl)-1-methyl-1H-pyrazole-5-carboxamide] showed a half-inhibitory concentration (IC50) of 25400 nM.
Compound `CC(C)(C)OC(=O)N[C@H](C(=O)Nc1cc(COC(=O)NCC(F)(F)F)ccn1)C1CCC(F)(F)CC1` [Example 45, Tert-butyl (S)-(1-(4,4-difluorocyclohexyl)-2-oxo-2-((4-((((2,2,2-trifluoroethyl)carbamoyl)oxy)methyl)pyridin-2-yl)amino)ethyl)carbamate] came in with a concentration for half-maximal inhibition (IC50) of 10300 nM.
To `O=C(CCC(F)(F)F)NC(c1ccnc(NC(=O)C(NC(=O)c2nonc2C2CC2)C2CCC(F)(F)CC2)c1)C1CC1` (stereo not drawn) [Example 46, 4-cyclopropyl-N-(2-((4-(cyclopropyl(4,4,4-trifluorobutan-amido)methyl)pyridin-2-yl)amino)-1-(4,4-difluorocyclohexyl)-2-oxoethyl)-1,2,5-oxadiazole-3-carboxamide] belongs 612 nM; to `Cn1nccc1C(=O)NC(C(=O)Nc1cc(C(NC(=O)CCC(F)(F)F)C2CC2)ccn1)C1CCC(F)(F)CC1` (stereo not drawn) [Example 47, N-(2-((4-(cyclopropyl(4,4,4-trifluorobutanamido)methyl)pyridin-2-yl)amino)-1-(4,4-difluorocyclohexyl)-2-oxoethyl)-1-methyl-1H-pyrazole-5-carboxamide], 630 nM.
Consider `CC(C)n1nccc1C(=O)NC(C(=O)Nc1cc(C(NC(=O)CCC(F)(F)F)C2CC2)ccn1)C1CCC(F)(F)CC1` (stereo not drawn) [Example 48, N-(2-((4-(cyclopropyl(4,4,4-trifluorobutanamido)methyl)pyridin-2-yl)amino)-1-(4,4-difluorocyclohexyl)-2-oxoethyl)-1-isopropyl-1H-pyrazole-5-carboxamide], for which the 50% inhibitory concentration (IC50) was 229 nM. This IC50 is about 2.8-fold lower than that of the compound before.
The compound `CCc1nocc1C(=O)NC(C(=O)Nc1cc(C(NC(=O)CCC(F)(F)F)C2CC2)ccn1)C1CCC(F)(F)CC1` (stereo not drawn) [Example 49, N-(2-((4-(cyclopropyl(4,4,4-trifluorobutanamido)methyl)pyridin-2-yl)amino)-1-(4,4-difluorocyclohexyl)-2-oxoethyl)-3-ethylisoxazole-4-carboxamide] gave a half-inhibitory concentration (IC50) of 776 nM.
To `CC(C)(C)OC(=O)N[C@H](C(=O)Nc1cc(CN2C[C@@H](C(F)(F)F)NC2=O)c(F)cn1)[C@H]1CC[C@H](C)CC1` [Example 50, tert-butyl ((S)-2-((5-fluoro-4-(((S)-2-oxo-4-(trifluoromethyl)imidazolidin-1-yl)methyl)pyridin-2-yl)amino)-1-((1r,4S)-4-methylcyclohexyl)-2-oxoethyl)carbamate] belongs 2950 nM; to `Cc1cnn(C)c1Cc1ccnc(NC(=O)[C@@H](NC(=O)OC(C)(C)C)[C@H]2CC[C@H](C)CC2)c1` [Example 51, tert-butyl ((S)-2-((4-((1,4-dimethyl-1H-pyrazol-5-yl)methyl)pyridin-2-yl)amino)-1-((1r,4S)-4-methylcyclohexyl)-2-oxoethyl)carbamate], 2080 nM; to `Cn1nccc1C(=O)NC(C(=O)Nc1cc(Cc2ccc(=O)n(C)c2)ccn1)C1CCC(F)(F)CC1` (stereo not drawn) [Example 52, N-(1-(4,4-difluorocyclohexyl)-2-((4-((1-methyl-6-oxo-1,6-dihydro-pyridin-3-yl)methyl)pyridin-2-yl)amino)-2-oxoethyl)-1-methyl-1H-pyrazole-5-carboxamide], 23900 nM.
The compound `Cc1cnn(C)c1Cc1ccnc(NC(=O)C(NC(=O)c2ccnn2C)C2CCC(F)(F)CC2)c1` (stereo not drawn) [Example 53] returned a half-inhibitory concentration (IC50) of 3880 nM.
Compound `Cn1nccc1C(=O)NC(C(=O)Nc1cc(Cc2ccn(C)c(=O)c2)ccn1)C1CCC(F)(F)CC1` (stereo not drawn) [Example 54, N-(1-(4,4-difluorocyclohexyl)-2-((4-((1-methyl-2-oxo-1,2-dihydro-pyridin-4-yl)methyl)pyridin-2-yl)amino)-2-oxoethyl)-1-methyl-1H-pyrazole-5-carboxamide] had an IC50 of 4760 nM.
For `Cc1cnn(C)c1Cc1ccnc(NC(=O)[C@@H](NC(=O)c2ccnn2C(C)C)[C@H]2CC[C@H](C)CC2)c1` [Example 55, N—((S)-2-((4-((1,4-dimethyl-1H-pyrazol-5-yl)methyl)pyridin-2-yl)amino)-1-((1r,4S)-4-methylcyclohexyl)-2-oxoethyl)-1-isopropyl-1H-pyrazole-5-carboxamide], the IC50 was 183 nM.
As for `Cc1cc(COC(=O)N[C@H](C(=O)Nc2cc(CN3C[C@@H](C(F)(F)F)NC3=O)ccn2)C2CCC(F)(F)CC2)no1` [Example 57, (5-Methylisoxazol-3-v)methyl ((S)-1-(4,4-difluorocyclohexyl)-2-oxo-2-((4-(((S)-2-oxo-4-(trifluoromethyl)imidazolidin-1-VI)methyl)pyridin-2-yl)amino)ethyl)carbamate], the figure is 1960 nM.
`Cc1cc(COC(=O)N[C@H](C(=O)Nc2cc(CN3C[C@@H](C(F)(F)F)NC3=O)ccn2)C2CCC(F)(F)CC2)nn1C` [Example 60, (1,5-Dimethyl-1H-pyrazol-3-yl)methyl ((S)-1-(4,4-difluorocyclohexyl)-2-oxo-2-((4-(((S)-2-oxo-4-(trifluoromethyl)imidazolidin-1-yl)methyl)pyridin-2-yl)amino)ethyl)carbamate] gave a 50% inhibitory concentration (IC50) of 3750 nM. This IC50 is about 1.9-fold higher than that of the compound before.
`C[C@H]1CC[C@H]([C@H](NC(=O)c2nonc2C2CC2)C(=O)Nc2cc(CN3C[C@@H](C(F)(F)F)NC3=O)c(F)cn2)CC1` [Example 61, 4-cyclopropyl-N-((S)-2-((5-fluoro-4-(((S)-2-oxo-4-(trifluoromethyl)imidazolidin-1-yl)methyl)pyridin-2-yl)amino)-1-((1r,4S)-4-methylcyclohexyl)-2-oxo-ethyl)-1,2,5-oxadiazole-3-carboxamide] yielded a half-maximal inhibitory concentration (IC50) of 612 nM.
For the compound `Cc1nonc1C(=O)N[C@H](C(=O)Nc1cc(CN2C[C@@H](C(F)(F)F)NC2=O)c(F)cn1)[C@H]1CC[C@H](C)CC1` [Example 62, N-((S)-2-((5-fluoro-4-(((S)-2-oxo-4-(trifluoromethyl)-imidazolidin-1-yl)methyl)-pyridin-2-yl)amino)-1-((1r,4S)-4-methylcyclo-hexyl)-2-oxoethyl)-4-methyl-1,2,5-oxadiazole-3-carboxamide], the IC50 is 1400 nM.
As to `CC(C)n1nccc1C(=O)N[C@H](C(=O)Nc1cc(CN2C[C@@H](C(F)(F)F)NC2=O)c(F)cn1)[C@H]1CC[C@H](C)CC1` [Example 63, N-((S)-2-((5-fluoro-4-(((S)-2-oxo-4-(trifluoromethyl)-imidazolidin-1-yl)methyl)-pyridin-2-yl)amino)-1-((1r,4S)-4-methylcyclo-hexyl)-2-oxoethyl)-1-isopropyl-1H-pyrazole-5-carboxamide], the IC50 was 330 nM.
`Cn1nccc1C(=O)N[C@H](C(=O)Nc1cc(CN2C[C@@H](C(F)(F)F)NC2=O)c(F)cn1)[C@H]1CC[C@H](C)CC1` [Example 64, N-((S)-2-((5-fluoro-4-(((S)-2-oxo-4-(trifluoromethyl)-imidazolidin-1-yl)methyl)-pyridin-2-yl)amino)-1-((1r,4S)-4-methylcyclo-hexyl)-2-oxoethyl)-1-methyl-1H-pyrazole-5-carboxamide] registered an IC50 of 1230 nM.
For `C[C@H]1CC[C@H]([C@H](NC(=O)C2(F)CC2)C(=O)Nc2cc(CN3C[C@@H](C(F)(F)F)NC3=O)ccn2)CC1` [Example 67, 1-fluoro-N-((S)-1-((1r,4S)-4-methylcyclohexyl)-2-oxo-2-((4-(((S)-2-oxo-4-(trifluoromethyl)imidazolidin-1-yl)methyl)pyridin-2-yl)amino)ethyl)cyclopropane-1-carboxamide], the concentration for half-maximal inhibition (IC50) came to 809 nM.
In the case of `Cc1nonc1COC(=O)N[C@H](C(=O)Nc1cc(CN2C[C@@H](C(F)(F)F)NC2=O)ccn1)C1CCC(F)(F)CC1` [Example 70, (4-Methyl-1,2,5-oxadiazol-3-yl)methyl ((S)-1-(4,4-difluorocyclohexyl)-2-oxo-2-((4-(((S)-2-oxo-4-(trifluoromethyl)imidazolidin-1-yl)methyl)pyridin-2-yl)amino)ethyl)carbamate], the IC50 was 8000 nM.
With `COCC(c1ccnc(NC(=O)[C@@H](NC(=O)c2ccnn2C)C2CCC(C)CC2)c1)N1C[C@@H](C(F)(F)F)NC1=O` (stereo partly drawn) [Example 76, N-((1S)-2-((4-(2-methoxy-1-((S)-2-oxo-4-(trifluoro-methyl)imidazolidin-1-yl)ethyl)pyridin-2-yl)amino)-1-((1r,4S)-4-methylcyclohexyl)-2-oxoethyl)-1-methyl-1H-pyrazole-5-carboxamide], the 50% inhibitory concentration (IC50) came out at 93 nM.

Source of the values: patent US20260200928A1, “THERAPEUTIC COMPOUNDS” (Sanofi, priority 2022, published 2026).
